According to ChEMBL document CHEMBL3124888, “Inhibiting the HIV integration process: past, present, and the future” (J Med Chem, 2014):

How the values were obtained:
[1] = test system: Human immunodeficiency virus 1; experiment: Antiviral activity against HIV-1 harboring integrase T97A/Y143R double mutant relative to wild type HIV1; assay type: functional
[2] = test system: Human immunodeficiency virus 1; experiment: Antiviral activity against HIV-1 harboring integrase T97A/Y143C double mutant relative to wild type HIV1; assay type: functional
[3] = test system: Human immunodeficiency virus 1; experiment: Antiviral activity against HIV-1 harboring integrase G140S/Q148K double mutant relative to wild type HIV1; assay type: functional
[4] = test system: Human immunodeficiency virus 1; experiment: Antiviral activity against HIV-1 harboring integrase G140S/Q148H double mutant relative to wild type HIV1; assay type: functional
[5] = test system: Human immunodeficiency virus 1; experiment: Antiviral activity against HIV-1 harboring integrase E138K/Q148K double mutant relative to wild type HIV1; assay type: functional
[6] = test system: Human immunodeficiency virus 1; experiment: Antiviral activity against HIV-1 harboring integrase E138K/Q148H double mutant relative to wild type HIV1; assay type: functional
[7] = test system: Human immunodeficiency virus 1; experiment: Antiviral activity against HIV-1 harboring integrase E92Q/N155H double mutant relative to wild type HIV1; assay type: functional
[8] = test system: Human immunodeficiency virus 1; experiment: Antiviral activity against HIV-1 harboring integrase R263K mutant relative to wild type HIV1; assay type: functional
[9] = test system: Human immunodeficiency virus 1; experiment: Antiviral activity against HIV-1 harboring integrase N155H mutant relative to wild type HIV1; assay type: functional
[10] = test system: Human immunodeficiency virus 1; experiment: Antiviral activity against HIV-1 harboring integrase Q148R mutant relative to wild type HIV1; assay type: functional
[11] = test system: Human immunodeficiency virus 1; experiment: Antiviral activity against HIV-1 harboring integrase Q148K mutant relative to wild type HIV1; assay type: functional
[12] = test system: Human immunodeficiency virus 1; experiment: Antiviral activity against HIV-1 harboring integrase Q148H mutant relative to wild type HIV1; assay type: functional
[13] = test system: Human immunodeficiency virus 1; experiment: Antiviral activity against HIV-1 harboring integrase Y143R mutant relative to wild type HIV1; assay type: functional
[14] = test system: Human immunodeficiency virus 1; experiment: Antiviral activity against HIV-1 harboring integrase Y143C mutant relative to wild type HIV1; assay type: functional
[15] = test system: Human immunodeficiency virus 1; experiment: Antiviral activity against HIV-1 harboring integrase G140S mutant relative to wild type HIV1; assay type: functional
[16] = test system: Human immunodeficiency virus 1; experiment: Antiviral activity against HIV-1 harboring integrase E138K mutant relative to wild type HIV1; assay type: functional
[17] = test system: Human immunodeficiency virus 1; experiment: Antiviral activity against HIV-1 harboring integrase G118R mutant relative to wild type HIV1; assay type: functional
[18] = test system: Human immunodeficiency virus 1; experiment: Antiviral activity against HIV-1 harboring integrase T97A mutant relative to wild type HIV1; assay type: functional
[19] = test system: Human immunodeficiency virus 1; experiment: Antiviral activity against HIV-1 harboring integrase E92Q mutant relative to wild type HIV1; assay type: functional
[20] = test system: Human immunodeficiency virus 1; experiment: Antiviral activity against HIV-1 harboring integrase T66R mutant relative to wild type HIV1; assay type: functional
[21] = Inhibition of HIV1 integrase/LEDGF-75 (unknown origin) interaction
[22] = test system: Human immunodeficiency virus
Description: Binding affinity to HIV integrase assessed as dissociation half life

[23] = Inhibition of HIV-1 recombinant His6-tagged integrase/human LEDGF-75 interaction expressed in Escherichia coli BL21(DE3) by SDS PAGE analysis
[24] = test system: Human immunodeficiency virus 1; experiment: Antiviral activity against HIV-1 by cell-based assay; assay type: functional, organism-based
[25] = Tmax in dog; assay type: ADME, organism-based, Canis lupus familiaris; settings: in vivo
[26] = Tmax in rat; assay type: ADME, organism-based; settings: in vivo
[27] = Oral bioavailability in rat; assay type: ADME, organism-based; settings: in vivo
[28] = test system: Human immunodeficiency virus 1; experiment: Antiviral activity against HIV1 3B infected in human MT4 cells assessed as inhibition of viral infection after 5 days by MTT assay in presence of human serum; assay type: functional; settings: Human immunodeficiency virus 1, 3B, MT4, 120 h
[29] = test system: Human immunodeficiency virus 1; experiment: Antiviral activity against HIV-1 harboring integrase T66I mutant relative to wild type HIV1; assay type: functional
[30] = test system: Human immunodeficiency virus 1; experiment: Antiviral activity against HIV-1 harboring integrase T66I/R263K double mutant relative to wild type HIV1; assay type: functional
[31] = test system: Human immunodeficiency virus 1; experiment: Antiviral activity against HIV-1 harboring integrase E92V mutant relative to wild type HIV1; assay type: functional
[32] = test system: Human immunodeficiency virus 1; experiment: Antiviral activity against HIV-1 harboring integrase G140C mutant relative to wild type HIV1; assay type: functional

| SMILES | fold change (FC) [1] | fold change (FC) [2] | fold change (FC) [3] | fold change (FC) [4] | fold change (FC) [5] | fold change (FC) [6] | fold change (FC) [7] | fold change (FC) [8] | fold change (FC) [9] | fold change (FC) [10] | fold change (FC) [11] | fold change (FC) [12] | fold change (FC) [13] | fold change (FC) [14] | fold change (FC) [15] | fold change (FC) [16] | fold change (FC) [17] | fold change (FC) [18] | fold change (FC) [19] | fold change (FC) [20] | further results |
| --- | --- | --- | --- | --- | --- | --- | --- | --- | --- | --- | --- | --- | --- | --- | --- | --- | --- | --- | --- | --- | --- |
| C[C@@H]1CCO[C@H]2Cn3cc(C(=O)NCc4ccc(F)cc4F)c(=O)c(O)c3C(=O)N12 [DOLUTEGRAVIR] | <2 | <2 | <2 | <2 | >100 | 2 | 2 | 10 | <2 | <2 | <2 | <2 | <2 | <2 | <2 | 2 | 2 | <2 | 2 | <2 | – |
| CCCCc1ncc(/C=C(\Cc2cccs2)C(=O)O)n1Cc1ccc(C(=O)O)cc1 [EPROSARTAN] | – | – | – | – | – | – | – | – | – | – | – | – | – | – | – | – | – | – | – | – | IC50 [21]: 36.9 µM |
| CCN1C[C@H](C)n2c(c(O)c3c(=O)n(Cc4ccc(F)c(Cl)c4)nc(C(=O)NC)c32)C1=O | – | – | 2 | 10 | – | – | 2 | <2 | 2 | 2 | <2 | 2 | 2 | 2 | 2 | 2 | 2 | – | <2 | <2 | T1/2 [22]: 32 h |
| CCCC(C(=O)O)c1c(C)nc2ccc(Cl)cc2c1-c1ccccc1 (stereo not given) | – | – | – | – | – | – | – | – | – | – | – | – | – | – | – | – | – | – | – | – | IC50 [23]: 1370 nM; EC50 [24]: 2350 nM |
| COc1cc2c(cc1Cc1cccc(Cl)c1F)c(=O)c(C(=O)O)cn2[C@H](CO)C(C)C | <2 | <2 | >100 | >100 | >100 | 10 | >100 | 2 | 20 | 50 | 50 | 2 | <2 | <2 | 2 | 2 | <2 | 2 | 20 | 50 | Tmax [25]: 30 min; Tmax [26]: 30 min; bioavailability [27]: 30%; EC90 [28]: 1.7 nM; fold change (FC) [29]: >10; fold change (FC) [30]: >100 |
| CC(C)c1c(C(=O)Nc2ccccc2)c(-c2ccccc2)c(-c2ccc(F)cc2)n1CC[C@@H](O)C[C@@H](O)CC(=O)O [ATORVASTATIN] | – | – | – | – | – | – | – | – | – | – | – | – | – | – | – | – | – | – | – | – | IC50 [21]: 8.9 µM |
| Cc1nnc(C(=O)NC(C)(C)c2nc(C(=O)NCc3ccc(F)cc3)c(O)c(=O)n2C)o1 | >100 | >100 | >100 | >100 | 10 | <2 | 50 | <2 | 20 | 20 | 50 | 10 | 20 | 2 | 2 | 2 | 2 | 2 | 2 | 2 | fold change (FC) [31]: >5; fold change (FC) [32]: >5; fold change (FC) [30]: <2; T1/2 [22]: > 7.3 h |
